The numbers were not newly measured in patent US20250019345A1, “NEW CANNABINOID-GAB[…] USES THEREOF” (LONDON PHARMACEUTICALS AND RESEARCH CORPORATION, priority 2021, published 2025), which cites them from elsewhere.

The structures appear in SMILES notation.

For the series the following is noted: after oral administration; for Tmax: cannabinoids.

Usually Tmax stands for the time from dosing to the highest level. Regarding `C=C(C)[C@@H]1CCC(C)=C[C@H]1c1c(O)cc(CCCCC)cc1O` [CBD, cannabidiol], the Tmax was roughly 4 h.

For `CC(C)C[C@H](CN)CC(=O)O` [pregabalin], the bioavailability result is “exceed 90%”.

As to `CCCCCc1cc(O)c2c(c1)OC(C)(C)[C@@H]1CCC(C)=C[C@@H]21` [THC, delta-9-tetrahydrocannabinol], the Tmax was roughly 4 h.
